Measurements published in ChEMBL document CHEMBL1201862, “PubChem BioAssay data set” (2004).
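Tested at 5 concentrations; 48 h exposure; 96-well plates; endpoints linearly interpolated, else capped at highest concentration. Abbreviation: GI50, concentration required for 50% inhibition of growth.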 Activity calls are given as the source filed them. Rule as the data show it: active = GI50 up to about 1.1 µM and inactive = higher.

Key:
Test in all cases: NCI anticancer screen, dose series, 48 h
786-0 = tested on: 786-0
A498 = tested on: A498
A549 = tested on: A549
ACHN = tested on: ACHN
CAKI-1 = tested on: CAKI-1
CCRF-CEM = tested on: CCRF-CEM
COLO 205 = tested on: COLO 205
DLD-1 = tested on: DLD-1
DMS-273 = tested on: DMS-273
EKVX = tested on: EKVX
HCC 2998 = tested on: HCC 2998
HCT-116 = tested on: HCT-116
HCT-15 = tested on: HCT-15
HL-60 = tested on: HL-60
HOP-18 = tested on: HOP-18
HOP-62 = tested on: HOP-62
HOP-92 = tested on: HOP-92
HT-29 = tested on: HT-29
IGROV-1 = tested on: IGROV-1
K562 = tested on: K562
KM-20L2 = tested on: KM-20L2
KM12 = tested on: KM12
LOX IMVI = tested on: LOX IMVI
LXFL 529 = tested on: LXFL 529
M14 = tested on: M14
MOLT-4 = tested on: MOLT-4
Malme-3M = tested on: Malme-3M
NCI-H226 = tested on: NCI-H226
NCI-H23 = tested on: NCI-H23
NCI-H460 = tested on: NCI-H460
NCI-H522 = tested on: NCI-H522
OVCAR-3 = tested on: OVCAR-3
OVCAR-4 = tested on: OVCAR-4
OVCAR-5 = tested on: OVCAR-5
OVCAR-8 = tested on: OVCAR-8
RPMI-8226 = tested on: RPMI-8226
RXF 393 = tested on: RXF 393
SF-268 = tested on: SF-268
SF-295 = tested on: SF-295
SF-539 = tested on: SF-539
SK-MEL-28 = tested on: SK-MEL-28
SK-MEL-2 = tested on: SK-MEL-2
SK-MEL-5 = tested on: SK-MEL-5
SK-OV-3 = tested on: SK-OV-3
SN12C = tested on: SN12C
SNB-19 = tested on: SNB-19
SNB-75 = tested on: SNB-75
SNB-78 = tested on: SNB-78
SR = tested on: SR
SW-620 = tested on: SW-620
TK-10 = tested on: TK-10
U-251 = tested on: U-251
UACC-257 = tested on: UACC-257
UACC-62 = tested on: UACC-62
UO-31 = tested on: UO-31
XF498 = tested on: XF498

Measured: GI50

CN(C)CCNC(=O)c1cccc2cc3ccc4ccccc4c3nc12
68.4 nM: HCT-15
active: 786-0 82.4 nM | A498 < 10 nM | A549 22.6 nM | ACHN 27.6 nM | CAKI-1 41.3 nM | CCRF-CEM 40.6 nM | COLO 205 41.4 nM | DLD-1 56.1 nM | DMS-273 22.4 nM | EKVX 145 nM | HCC 2998 104 nM | HCT-116 29.4 nM | HL-60 33.6 nM | HOP-18 205 nM | HOP-62 95.7 nM | HOP-92 143 nM | HT-29 51.6 nM | IGROV-1 105 nM | K562 65.3 nM | KM-20L2 136 nM | KM12 148 nM | LOX IMVI 50.2 nM | LXFL 529 128 nM | M14 200 nM | MOLT-4 15.6 nM | Malme-3M 268 nM | NCI-H226 112 nM | NCI-H23 85.1 nM | NCI-H460 14.9 nM | NCI-H522 122 nM | OVCAR-3 215 nM | OVCAR-4 115 nM | OVCAR-5 214 nM | OVCAR-8 59.4 nM | RPMI-8226 145 nM | RXF 393 111 nM | SF-268 95.3 nM | SF-295 86.7 nM | SF-539 81.1 nM | SK-MEL-28 198 nM | SK-MEL-2 203 nM | SK-MEL-5 137 nM | SK-OV-3 121 nM | SN12C 53.1 nM | SNB-19 94.2 nM | SNB-75 131 nM | SNB-78 182 nM | SR 24.6 nM | SW-620 30.6 nM | TK-10 207 nM | U-251 75.5 nM | UACC-257 177 nM | UACC-62 77.6 nM | UO-31 48.1 nM | XF498 56 nM
